Laboratory results: US12669496B2, “Method for evaluating and/or screening a control agent for tissue morphology and/or tissue function” (ROHTO PHARMACEUTICAL CO., LTD., priority 2020, dated 2026)

Columns and labels:
[1] = tested on: type I collagen; assay: Immunohistochemical staining of type I collagen in skin equivalent; assay type: cell-based, human
[2] = tested on: MRTFA; assay: Real-time PCR of MRTFA gene expression in skin equivalent models; assay type: cell-based, human; details: 10 μM, 6 to 48 hours; tensional homeostatic skin equivalent model (confirmed only in this model)
[3] = tested on: HAS3; assay: Real-time PCR of HAS3 gene expression in skin equivalent models; details: 10 μM
[4] = tested on: COL1A1; assay: Real-time PCR of COL1A1 gene expression in skin equivalent models; assay type: cell-based, human; details: 6 to 48 hours
[5] = tested on: COL1A2; assay: Real-time PCR of COL1A2 gene expression in skin equivalent models; assay type: cell-based, human; details: 10 nM, 6 to 48 hours; tensional homeostatic model; to the equivalent level in tension-released skin equivalent
[6] = tested on: MRTFA; assay: Image analysis of nuclear import rates of MRTFA; assay type: cell-based, human; details: 10 nM, 6 to 48 hours; image analysis of immunohistochemical staining
[7] = tested on: FBN1; assay: Real-time PCR of FBN1 gene expression in skin equivalent models; assay type: cell-based, human; details: 10 nM, 6 to 48 hours; tensional homeostatic model; to the equivalent level in tension-released skin equivalent
[8] = tested on: αSMA; assay: Immunohistochemical staining of αSMA in skin equivalent models; assay type: cell-based, human; details: 10 nM, 6 to 48 hours; tensional homeostatic model; to levels approximately equivalent to tension-released model
[9] = tested on: MMP1; assay: Real-time PCR of MMP1 gene expression in skin equivalent models; assay type: cell-based, human; details: 10 nM, 6 to 48 hours; tensional homeostatic model; to the equivalent level in tension-released skin equivalent
[10] = tested on: MRTFA; assay: Immunohistochemical staining of MRTFA in skin equivalent models; assay type: cell-based, human; details: 10 nM, 6 to 48 hours; tensional homeostatic model; to levels approximately equivalent to tension-released model
[11] = tested on: Tensional homeostatic skin equivalent; assay: Fluorescent staining of actin cytoskeleton and cell membrane (tissue orientation); assay type: cell-based, human; details: 10 nM, to level approximately equivalent to tension-released model
[12] = tested on: ELN; assay: Real-time PCR of ELN gene expression in skin equivalent models; assay type: cell-based, human; details: 10 nM, 6 to 48 hours; tensional homeostatic model; to the equivalent level in tension-released skin equivalent
[13] = tested on: ITGA2; assay: Immunohistochemical staining of ITGA2 in skin equivalent models; assay type: cell-based, human; details: 10 nM, 6 to 48 hours; tensional homeostatic model; to levels approximately equivalent to tension-released model

| Structure (SMILES) | expression of type I collagen (collagen fiber formation) ([1]; 10 μM, Tensional homeostatic skin model, vs control group) | MRTFA gene expression [2] | HAS3 gene expression ([3]; 6 to 48 hours, each skin equivalent model, compared with all the control groups) | ratio of the HAS3 expression promotion ([3]; Tensional homeostatic skin equivalent compared with the other models) | COL1A1 gene expression ([4]; 10 μM, Tensional homeostatic skin equivalent vs control group (confirmed only in this model)) | expression level of type I collagen (collagen fiber formation) ([1]; 10 nM, Tensional homeostatic skin equivalent, to level approximately equivalent to tension-released model) | gene expression of COL1A2 [5] | nuclear import rates of MRTFA [6] | gene expression of FBN1 [7] | expression level of αSMA [8] | gene expression of MMP1 [9] | expression level of MRTFA [10] | gene expression of COL1A1 ([4]; 10 nM, tensional homeostatic model, to the equivalent level in tension-released skin equivalent) | orientations of the cytoskeletons, cell membranes, and nuclei in the tension direction [11] | gene expression of ELN [12] | expression level of ITGA2 [13] |
| --- | --- | --- | --- | --- | --- | --- | --- | --- | --- | --- | --- | --- | --- | --- | --- | --- |
| CC1=C(/C=C/C(C)=C/C=C/C(C)=C/C(=O)O)C(C)(C)CCC1 [ATRA, all-trans retinoic acid] | increased | significant increase | significant promotion of gene expression | highest value | significant promotion of gene expression |  |  |  |  |  |  |  |  |  |  |  |
| C[C@@H](N)[C@H]1CC[C@H](C(=O)Nc2ccncc2)CC1 [Y27632] |  |  |  |  |  | reduced | significantly inhibited | significantly reduced | significantly inhibited | reduces the expression levels | significantly increased | reduces the expression levels | significantly inhibited | reduced the orientations | significantly inhibited | reduces the expression levels |
